For 33 molecules, IC50 and inhibition results are on record in PubChem BioAssay AID850 (SRMLSC, 2007).

The structures appear in SMILES notation. Activity calls are given as the source filed them. No rule for the calls is given here.

Test [1] has as its system Saccharomyces cerevisiae growth inhibition, permissive control. Nature of the test: concentration-response yeast growth inhibition under permissive conditions, counter-assay for yeast lifespan-shortening chemical project (AID 850).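 Also: growth read as optical density after one day of incubation.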
Assay in test [2]: as above
Conditions: Saccharomyces cerevisiae growth inhibition, permissive control, measured here: maximum growth inhibition, stronger effect = higher value.

On to `Cc1ccc(-c2nnc3ccc(SC(C)C(=O)O)nn23)cc1` (stereo unspecified), for which the IC50 in test [1] is > 100 µM (inactive). Also, the inhibition in test [2] (at 6.25 µM) was 10.5%.
Regarding `Cc1ccc(Oc2nc(CN3CCOCC3)nc3sc4c(c23)CCC(C)C4)cc1C` (stereo unspecified), the IC50 in test [1] was 23.5 µM. The inhibition in test [2] (at 50 µM) came out at 93.4%.
For `CC1CCCCN1S(=O)(=O)c1coc(C(N)=O)c1` (stereo unspecified), in test [1], the IC50 is > 100 µM (inactive). For the same molecule, the inhibition in test [2] (at 3.125 µM) stood at 3.72%.
Regarding `Cc1ccc(/C=C2\C(=O)NC(=S)N(c3ccccc3F)C2=O)s1`, the IC50 in test [1] is > 100 µM (inactive). In addition, in test [2] (at 6.25 µM), the inhibition was determined as 29%.
As for `O=S(=O)(Nc1ccc(-n2cccc2)cc1)c1ccc(Cl)cc1Cl`, in test [1], the IC50 is > 100 µM (inactive). In addition, in test [2] (at 0.391 µM), the inhibition turned out to be 29.9%.
In the case of `NC(=O)c1ccc(N=Cc2ccc([N+](=O)[O-])s2)cc1`, in test [1], the IC50 was 11 µM. Also, the inhibition in test [2] (at 50 µM) was 101%.
In the case of `c1ccc(-c2ccc(C(c3ccccc3)n3ccnc3)cc2)cc1` (stereo unspecified), the IC50 in test [1] is 0.793 µM. In addition, the inhibition in test [2] (at 3.125 µM) worked out at 94.4%.
Regarding `Cc1cc(C)nc(N/N=C/C2=C(N3CCOCC3)C(=C\c3ccc(Cl)cc3)/CC2)n1`, the IC50 in test [1] was > 100 µM (inactive). Moreover, the inhibition in test [2] (at 3.125 µM) was 5.26%.
In the case of `Cc1ccc(O)c(-c2cc(-c3cccc(F)c3)n[nH]2)c1`, in test [1], the IC50 is 25 µM. Moreover, the inhibition in test [2] (at 50 µM) is 96.9%.
In the same order, the values of `Cc1ccc2c(c1)c1c(n2C)-c2[nH]ncc2CC1` are 38.2 µM and 71.1%.
As to `O=c1c(-c2ccc(Cl)cc2)[n+]([O-])c2ccccc2n1O`, the IC50 in test [1] is 7.82 µM. Besides, the inhibition in test [2] (at 25 µM) is 99.8%.
The matching figures for `O=C(/C=C/N1CCOCC1)c1ccc(-c2ccccc2)cc1`: 7.19 µM and 99.6%.
For `O=C(COc1ccccc1)NNC(=S)NC(=O)c1ccc(Cl)cc1Cl`, the IC50 in test [1] is 25.7 µM. In test [2] (at 50 µM), the inhibition was determined as 84.4%.
For the molecule `CC(C)(CNC(=S)NCCc1ccccc1)CNC(=S)NCCc1ccccc1`, in test [1], the IC50 is > 100 µM (inactive). Moreover, the inhibition in test [2] (at 0.391 µM) was found to be 23.5%.
With `O=c1c2ccccc2nc2c3ccccc3c3nncn3n12`, in test [1], the IC50 is > 100 µM (inactive). For the same molecule, the inhibition in test [2] (at 6.25 µM) came out at 5.16%.
Turning to `Cc1cc(C)cc(NS(=O)(=O)c2cnc(Cl)c(Cl)c2)c1`, the IC50 in test [1] is > 100 µM (inactive). Also, the inhibition in test [2] (at 12.5 µM) stood at 19.5%.
Take `COc1cc(C(=O)NC(=S)NNC(=O)c2cnccn2)cc(OC)c1OC`: the 50% inhibitory concentration (IC50) in test [1] was 23.3 µM. In test [2] (at 50 µM), the inhibition came out at 59.3%.
In the same order, the values of `CC(Sc1cccc[n+]1[O-])C(=O)Nc1cccc(S(=O)(=O)N2CCOCC2)c1` (stereo unspecified) are 8.22 µM and 99.8%.
The matching figures for `O=C(O)c1ccc2c3c(ncnc13)-c1ccccc1C2=O`: 5.54 µM and 98.6%.
For the molecule `CC1=CC(=O)C=C(C)C1=NOS(=O)(=O)c1ccccc1`, the IC50 in test [1] is 26.4 µM. Also, the inhibition in test [2] (at 12.5 µM) was 62.4%.
Turning to `CCN1CCN(c2ncnc3c2sc(=S)n3-c2ccccc2)CC1`, in test [1], the IC50 was > 100 µM (inactive). The inhibition in test [2] (at 0.195 µM) came to 15.6%.
In the case of `O=C1c2cccc3c(Cl)ccc(c23)C(=O)N1O`, the IC50 in test [1] was 39.6 µM. Besides, in test [2] (at 50 µM), the inhibition was 61.6%.
In the same order, the values of `COc1cccc2sc(Nc3nc(-c4ccccn4)cs3)nc12` are 20 µM and 77.8%.
In the case of `O=C(N/N=C/c1cc2c3c(c1O)CCCN3CCC2)c1ccccc1O`, the IC50 in test [1] is 48.1 µM. The inhibition in test [2] (at 50 µM) is 49.5%.
As to `COc1ccc(NC(=O)CC2SC(=Nc3ccccc3)NC2=O)c(OC)c1` (stereo unspecified), the IC50 in test [1] is > 100 µM (inactive). Further, in test [2] (at 25 µM), the inhibition was determined as 23.9%.
`Oc1c(Cl)cc(Cl)c2c1NCCC2`: the IC50 in test [1] was 15.9 µM. In addition, in test [2] (at 50 µM), the inhibition turned out to be 99.8%.
`CC(=O)NC(=S)c1c(N)n(Cc2ccccc2)c(=O)n(C)c1=O`: the IC50 in test [1] was > 100 µM (inactive). For the same molecule, the inhibition in test [2] (at 3.125 µM) was 7.99%.
Take `O=C(OCn1ncc(Cl)c(Cl)c1=O)c1cccc(C(F)(F)F)c1`: in test [1], the IC50 was > 100 µM (inactive). Moreover, the inhibition in test [2] (at 50 µM) is 12.7%.
As for `C=CCSc1nnc2nc3c(nn12)c1cc(C)ccc1n3CC=C`, the IC50 in test [1] is > 100 µM (inactive). The inhibition in test [2] (at 25 µM) is 16.6%.
For the molecule `CC(C)(C)N/N=C/c1cc(Cl)cc([N+](=O)[O-])c1O`, the half-inhibitory concentration (IC50) in test [1] is 16.8 µM. The inhibition in test [2] (at 50 µM) came to 95.7%.
`O=C1c2ccc3c4c(ccc(c24)C(=O)N1NC(=O)C(F)(F)F)CC3`: in test [1], the IC50 was > 100 µM (inactive). The inhibition in test [2] (at 0.195 µM) amounted to 15.2%.
Regarding `O=C(Nc1cccc(N=Cc2cc(Cl)cc(Br)c2O)c1)c1ccco1`, the IC50 in test [1] is 25.8 µM. In addition, in test [2] (at 50 µM), the inhibition turned out to be 89.6%.
Take `CN1C(=O)C(O)(CC(=O)c2ccccc2O)c2cc(Br)ccc21` (stereo unspecified): the IC50 in test [1] was > 100 µM (inactive). In addition, in test [2] (at 0.195 µM), the inhibition stood at 17.2%.
